For orientation: IC50 means the concentration at which inhibition is half-maximal. A higher IC50 goes with a need for much substance.

Residues, ends and D or L forms follow the SMILES beside them.

In series [1] the test system is mouse cytomegalovirus (MCMV)/NIH/3T3 cells. Conditions: 72 h.
In series [2] the test system is Baculovirus/HEK293. The conditions noted are these: 24 h.
The test system of series [3] is red blood cells (RBC). In words: RBC swelling (enlarged pellet after centrifugation). The conditions noted are these: 1 h; for RBC swelling: peptides diluted in PBS (absence of serum), up to 20 µM, pellet size after centrifugation.

Consider `CC(C)[C@H](NC(=O)[C@H](CO)NC(=O)[C@H](CCC(N)=O)NC(=O)[C@@H]1CCCN1C(=O)[C@@H]1CCCN1C(=O)[C@H](CCCNC(=N)N)NC(=O)[C@H](CCCNC(=N)N)NC(=O)[C@H](CCCNC(=N)N)NC(=O)[C@H](CCC(N)=O)NC(=O)[C@H](CCCNC(=N)N)NC(=O)[C@H](CCCNC(=N)N)NC(=O)[C@H](CCCCN)NC(=O)[C@H](CCCCN)NC(=O)[C@H](CCCNC(=N)N)NC(=O)CN)C(=O)N[C@@H](Cc1ccccc1)C(=O)N[C@@H](Cc1ccc(O)cc1)C(=O)N[C@@H](C)C(=O)N[C@@H](CS)C(=O)N[C@@H](Cc1ccccc1)C(=O)N[C@@H](C)C(=O)N[C@@H](CS)C(=O)O` [TAT-De1] (H-GRKKRRQRRRPPQSVFYACFAC-OH), for which the results for the IC50 in series [1] and in series [2] were 1610 nM and 37 nM, respectively. Further, the RBC swelling result in series [3] is listed as “less effect on RBC swelling”.

For `CC(C)C[C@H](NC(=O)[C@H](CS)NC(=O)[C@H](CCC(N)=O)NC(=O)[C@@H]1CCCN1C(=O)[C@@H]1CCCN1C(=O)[C@H](CCCNC(=N)N)NC(=O)[C@H](CCCNC(=N)N)NC(=O)[C@H](CCCNC(=N)N)NC(=O)[C@H](CCC(N)=O)NC(=O)[C@H](CCCNC(=N)N)NC(=O)[C@H](CCCNC(=N)N)NC(=O)[C@H](CCCCN)NC(=O)[C@H](CCCCN)NC(=O)[C@H](CCCNC(=N)N)NC(=O)CN)C(=O)N[C@@H](C)C(=O)N[C@@H](Cc1ccccc1)C(=O)N[C@@H](Cc1ccc(O)cc1)C(=O)N[C@@H](C)C(=O)N[C@@H](CS)C(=O)N[C@@H](Cc1ccccc1)C(=O)N[C@@H](CS)C(=O)O` [TAT-I24] (H-GRKKRRQRRRPPQCLAFYACFC-OH), the 50% inhibitory concentration (IC50) in series [1] came out at 809 nM; in series [2], 16 nM. In series [3] (peptides diluted in 10% human/donor serum), the “RBC swelling in the presence of serum” value is recorded as “not in the presence of donor serum”. The RBC swelling result in series [3] is listed as “caused RBC swelling at higher concentrations”.

Consider `CC[C@H](C)[C@H](NC(=O)[C@H](C)NC(=O)[C@H](CC(C)C)NC(=O)[C@H](CS)NC(=O)[C@H](CCC(N)=O)NC(=O)[C@@H]1CCCN1C(=O)[C@@H]1CCCN1C(=O)[C@H](CCCNC(=N)N)NC(=O)[C@H](CCCNC(=N)N)NC(=O)[C@H](CCCNC(=N)N)NC(=O)[C@H](CCC(N)=O)NC(=O)[C@H](CCCNC(=N)N)NC(=O)[C@H](CCCNC(=N)N)NC(=O)[C@H](CCCCN)NC(=O)[C@H](CCCCN)NC(=O)[C@H](CCCNC(=N)N)NC(=O)CN)C(=O)N[C@@H](Cc1ccc(O)cc1)C(=O)N[C@@H](CC(=O)O)C(=O)N[C@@H](CS)C(=O)N[C@@H](Cc1ccccc1)C(=O)N[C@@H](CS)C(=O)O` [TAT-M13] (H-GRKKRRQRRRPPQCLAIYDCFC-OH), for which the IC50 came out at 1220 nM in series [1] and 31 nM in series [2]. Further, in series [3], the RBC swelling entry is “caused RBC swelling at higher concentrations”.

As for `CC(C)C[C@H](NC(=O)[C@H](CS)NC(=O)[C@H](CCC(N)=O)NC(=O)[C@@H]1CCCN1C(=O)[C@@H]1CCCN1C(=O)[C@H](CCCNC(=N)N)NC(=O)[C@H](CCCNC(=N)N)NC(=O)[C@H](CCCNC(=N)N)NC(=O)[C@H](CCC(N)=O)NC(=O)[C@H](CCCNC(=N)N)NC(=O)[C@H](CCCNC(=N)N)NC(=O)[C@H](CCCCN)NC(=O)[C@H](CCCCN)NC(=O)[C@H](CCCNC(=N)N)NC(=O)CN)C(=O)N[C@@H](C)C(=O)N[C@H](C(=O)N[C@@H](Cc1ccc(O)cc1)C(=O)N[C@@H](CC(=O)O)C(=O)N[C@@H](CS)C(=O)N[C@@H](Cc1ccccc1)C(=O)N[C@H](C(=O)O)C(C)C)C(C)C` [TAT-M17] (H-GRKKRRQRRRPPQCLAVYDCFV-OH; N-terminus and C-terminus assumed), the IC50 in series [1] is 5850 nM; in series [2], 102 nM. Moreover, in series [3], the RBC swelling result is “did not cause RBC swelling in the absence of serum even at 20 µM”.

On to `CC(C)C[C@H](NC(=O)[C@H](CS)NC(=O)[C@H](CCC(N)=O)NC(=O)[C@@H]1CCCN1C(=O)[C@@H]1CCCN1C(=O)[C@H](CCCNC(=N)N)NC(=O)[C@H](CCCNC(=N)N)NC(=O)[C@H](CCCNC(=N)N)NC(=O)[C@H](CCC(N)=O)NC(=O)[C@H](CCCNC(=N)N)NC(=O)[C@H](CCCNC(=N)N)NC(=O)[C@H](CCCCN)NC(=O)[C@H](CCCCN)NC(=O)[C@H](CCCNC(=N)N)NC(=O)CN)C(=O)N[C@@H](C)C(=O)N[C@H](C(=O)N[C@@H](Cc1c[nH]cn1)C(=O)N[C@@H](CC(=O)O)C(=O)N[C@@H](CS)C(=O)N[C@@H](Cc1ccccc1)C(=O)N[C@H](C(=O)O)C(C)C)C(C)C` [TAT-M22] (H-GRKKRRQRRRPPQCLAVHDCFV-OH; N-terminus and C-terminus assumed), for which the IC50 in series [1] was determined as 11800 nM; in series [2] it was 245 nM. The RBC swelling result in series [3] is “did not cause RBC swelling in the absence of serum even at 20 µM”.

Consider `CC(C)C[C@H](NC(=O)[C@H](CS)NC(=O)[C@H](C)NC(=O)[C@H](Cc1ccc(O)cc1)NC(=O)[C@H](Cc1ccccc1)NC(=O)[C@H](C)NC(=O)[C@H](CC(C)C)NC(=O)[C@H](CCC(N)=O)NC(=O)[C@@H]1CCCN1C(=O)[C@@H]1CCCN1C(=O)[C@H](CCCNC(=N)N)NC(=O)[C@H](CCCNC(=N)N)NC(=O)[C@H](CCCNC(=N)N)NC(=O)[C@H](CCC(N)=O)NC(=O)[C@H](CCCNC(=N)N)NC(=O)[C@H](CCCNC(=N)N)NC(=O)[C@H](CCCCN)NC(=O)[C@H](CCCCN)NC(=O)[C@H](CCCNC(=N)N)NC(=O)CN)C(=O)N[C@@H](C)C(=O)N[C@@H](Cc1ccccc1)C(=O)O` [TAT-M40] (H-GRKKRRQRRRPPQLAFYACLAF-OH), for which the IC50 in series [1] is 1850 nM; in series [2], 21 nM. For the same molecule, the RBC swelling result in series [3] is “caused RBC swelling at higher concentrations”.

With `CC(C)C[C@H](NC(=O)[C@H](CS)NC(=O)[C@H](C)NC(=O)[C@H](Cc1ccc(O)cc1)NC(=O)[C@H](Cc1ccccc1)NC(=O)[C@H](C)NC(=O)[C@H](CC(C)C)NC(=O)[C@H](CS)NC(=O)[C@@H]1CCCN1C(=O)[C@H](CCCNC(=N)N)NC(=O)[C@H](CCCNC(=N)N)NC(=O)[C@H](CCCNC(=N)N)NC(=O)[C@H](CCC(N)=O)NC(=O)[C@H](CCCNC(=N)N)NC(=O)[C@H](CCCNC(=N)N)NC(=O)[C@H](CCCCN)NC(=O)[C@H](CCCCN)NC(=O)[C@H](CCCNC(=N)N)NC(=O)CN)C(=O)N[C@@H](C)C(=O)N[C@@H](Cc1ccccc1)C(=O)N[C@@H](Cc1ccc(O)cc1)C(=O)N[C@@H](C)C(=O)N[C@@H](CS)C(=O)O` [TAT-M212] (H-GRKKRRQRRRPCLAFYACLAFYAC-OH), the IC50 in series [1] was 18200 nM; in series [2], 619 nM. Also, the RBC swelling entry in series [3] is on record as “caused RBC swelling over a broad concentration range comparable to TAT-M214”.

`CC(C)C[C@H](NC(=O)[C@H](CO)NC(=O)[C@H](C)NC(=O)[C@H](Cc1ccc(O)cc1)NC(=O)[C@H](Cc1ccccc1)NC(=O)[C@H](C)NC(=O)[C@H](CC(C)C)NC(=O)[C@H](CCC(N)=O)NC(=O)[C@@H]1CCCN1C(=O)[C@@H]1CCCN1C(=O)[C@H](CCCNC(=N)N)NC(=O)[C@H](CCCNC(=N)N)NC(=O)[C@H](CCCNC(=N)N)NC(=O)[C@H](CCC(N)=O)NC(=O)[C@H](CCCNC(=N)N)NC(=O)[C@H](CCCNC(=N)N)NC(=O)[C@H](CCCCN)NC(=O)[C@H](CCCCN)NC(=O)[C@H](CCCNC(=N)N)NC(=O)CN)C(=O)N[C@@H](C)C(=O)N[C@@H](Cc1ccccc1)C(=O)O` [TAT-M219] (H-GRKKRRQRRRPPQLAFYASLAF-OH): the IC50 is 7380 nM in series [1] and 96 nM in series [2]. For the same molecule, the RBC swelling result in series [3] is recorded as “did not cause RBC swelling in the absence of serum even at 20 µM”.

(Values after publication PMC12692169, “Identification of Novel TAT-I24-Related Peptides with Antiviral Activities” (International Journal of Molecular Sciences, 2025).)
